Our source for the IC50 and EC50 values is patent publication US9409944B2, “Compositions and methods for inhibiting proteases” (The Regents of the University of California, priority 2011, dated 2016).

The target in assay [1] is beta 5 subunit (chymotrypsin-like) of the Saccharomyces cerevisiae 20S proteasome (Saccharomyces cerevisiae, UniProt P30656). In words: Inhibition of the beta 5 subunit (chymotrypsin-like) of the 20S proteasome. Type of assay: biochemical. Particulars: S. cerevisiae 20S proteasome, pure compound. An excerpt:
(§1) We discovered the new natural products, compounds having formulas 1 and 2, from a collection of marine cyanobacteria obtained from Curaçao in the Netherland Antilles. We were led to isolate this compound from cancer cell toxicity of the extract and semi-purified fractions.

Assay [2] relates to human lung adenocarcinoma (H460) cells. In words: Cytotoxicity to human lung adenocarcinoma (H460) cells. Type of assay: cell-based. Particulars: NCI-H460.
Description: as §1

As usually defined, the IC50 is the concentration at which inhibition is half-maximal. Low readings indicate greater potency, high ones weaker potency. A word on the EC50: it is the midpoint of the concentration-response curve. Lower therefore signals a more potent agent.

In the case of `CCCCCC(=O)N[C@H](C(=O)N[C@@H](CC[S+](C)[O-])C(=O)N[C@@H](CC(C)C)C(=O)[C@@]1(C)CO1)C(C)C` (mixture of isomers) [Compound 1], the IC50 in assay [1] came to 5.3 ± 0.5 nM. This molecule showed an EC50 in assay [2] of 14.5 nM.
For the molecule `C[C@@]12OC(=O)[C@]1([C@@H](O)[C@@H]1C=CCCC1)NC(=O)[C@@H]2CCCl` [salinosporamide A, reference compound], the concentration for half-maximal inhibition (IC50) in assay [1] came to 1.4 ± 0.2 nM.
